Source: BindingDB's records for patent US20230348467 (Zhejiang Hisun Pharmaceutical, 2023)

Molecular target: T1, Tyrosine-protein phosphatase non-receptor type 11 (Homo sapiens, UniProt Q06124)
T1 sequence (Q06124 whole entry): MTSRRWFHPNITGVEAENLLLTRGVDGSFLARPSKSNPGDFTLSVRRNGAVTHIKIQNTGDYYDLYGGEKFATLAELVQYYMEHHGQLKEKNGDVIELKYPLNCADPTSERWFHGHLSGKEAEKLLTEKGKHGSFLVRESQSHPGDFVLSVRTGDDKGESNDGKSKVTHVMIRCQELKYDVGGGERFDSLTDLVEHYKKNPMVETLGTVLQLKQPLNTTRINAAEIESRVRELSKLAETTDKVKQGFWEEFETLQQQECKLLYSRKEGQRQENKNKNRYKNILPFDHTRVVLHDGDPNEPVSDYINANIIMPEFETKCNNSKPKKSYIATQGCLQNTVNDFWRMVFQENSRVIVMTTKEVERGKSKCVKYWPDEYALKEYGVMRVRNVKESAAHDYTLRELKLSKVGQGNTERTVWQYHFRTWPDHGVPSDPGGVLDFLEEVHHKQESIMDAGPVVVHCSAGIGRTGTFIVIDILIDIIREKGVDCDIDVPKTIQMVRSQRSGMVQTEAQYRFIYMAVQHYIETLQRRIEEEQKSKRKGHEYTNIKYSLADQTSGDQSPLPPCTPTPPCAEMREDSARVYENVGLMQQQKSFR
Test: Determination of Allosteric Inhibition Activities of the Compounds of the Present Invention on SHP2
Protocol: he experimental process was briefly described as follows: Test compounds were first dissolved in DMSO to prepare storage solutions. […] Then, the compounds to be tested were added in a concentration range of 0.00004-10 uM and incubated at 25 C. for 60 minutes. Then DiFMUP (Thermo, D6567) was added in the reaction and incubated at 25 C. for 30 minutes. After incubation, readings were taken using a microplate reader (BMG) with excitation and emission wavelengths of 340 nm and 450 nm, respectively.

In the case of NC1(c2ccccc2)CCN(c2nc(C(=O)O)c3c(-c4cccc(Cl)c4Cl)n[nH]c3n2)CC1 [US20230348467, Compound 10], the IC50 is reported as 7 nM.

Compound NC(=O)c1nc(N2C3CCC2CC(N)C3)nc2[nH]nc(-c3cccc(Cl)c3Cl)c12 (stereo not drawn) [US20230348467, Compound 17] has an IC50 of 4 nM.

NC(=O)c1nc(N2CCC(N)(c3cccc(O)c3)CC2)nc2[nH]nc(-c3cccc(Cl)c3Cl)c12 [US20230348467, Compound 51] showed an IC50 of 3 nM.
